# Laboratory results from the NIST ThermoML archive (doi:10.1016/j.jct.2014.12.001).
# Numbers after ± are expanded uncertainties.
# Settings: 100 kPa, Liquid, Parallel plate method
SMILES,thermal conductivity (283.15 K) [W/m/K],thermal conductivity (303.15 K) [W/m/K],thermal conductivity (323.15 K) [W/m/K],thermal conductivity (343.15 K) [W/m/K]
"OCCO [1,2-ethanediol]",0.239 ± 0.02,0.248 ± 0.02,0.257 ± 0.02,0.266 ± 0.02
"CC(O)CO (stereo not drawn) [1,2-propanediol]",0.206 ± 0.02,0.207 ± 0.02,0.206 ± 0.02,0.207 ± 0.02
